# From patent US10064858B2, “Methods and compositions for treating bacterial infections with iron chelators” (THE UNITED STATES OF AMERICA, AS REPRESENTED BY THE …, priority 2011, dated 2018)
# Like-named read-outs stand apart in the source and are kept apart here.
# How the values were obtained:
# Type in all cases: cell-based
# [1] = system: Acinetobacter baumannii; assay: MIC, CLSI microdilution (Tables 1 and 6)
# Experimental: (§1) The minimal inhibitory concentration (MIC) of non-toxic iron chelators was determined against standard strains of MDR bacteria and clinical isolates according to the guidelines of the Clinical and Laboratory Standards Institute (CLSI).
# (§2) Individual MICs were determined following the microdilution method recommended by CLSI in cationic-adjusted Mueller-Hinton Broth (CAMHB), or M9 media. […] Tests were performed in triplicate. MIC of iron chelators were determined for noscomial ESKAPE pathogens.
# (§3) MIC were determined in CAMHB media as described above in Example 8.
# [2] = system: E. coli; assay: MIC, CLSI microdilution (Tables 1 and 6)
# Experimental: as §1, §2, §3
# [3] = system: K. pneumonia; assay: MIC, CLSI microdilution (Tables 1 and 6); conditions: Klebsiella pneumoniae
# Experimental: as §1, §2, §3
# [4] = system: P. aeruginosa; assay: MIC, CLSI microdilution (Tables 1 and 6); conditions: Pseudomonas aeruginosa
# Experimental: as §1, §2, §3
# [5] = system: S. aureus; assay: MIC, CLSI microdilution (Tables 1 and 6); conditions: Staphylococcus aureus
# Experimental: as §1, §2, §3
# [6] = system: Acinetobacter baumannii; assay: MIC in RPMI1640 media (Table 2)
# Experimental: (§4) […] […] Tests were performed in triplicate. MIC of iron chelators were determined for noscomial ESKAPE pathogens.
# (§5) This media is closer to the iron levels in the human body. MICs are in ug/mL.
# [7] = system: E. coli; assay: MIC in RPMI1640 media (Table 2)
# Experimental: as §4, §5
# [8] = system: K. pneumonia; assay: MIC in RPMI1640 media (Table 2); conditions: Klebsiella pneumoniae
# Experimental: as §4, §5
# [9] = system: P. aeruginosa; assay: MIC in RPMI1640 media (Table 2); conditions: Pseudomonas aeruginosa
# Experimental: as §4, §5
# [10] = system: Acinetobacter baumannii strain 5711 (AB5711); assay: Growth (OD600) of AB5711 in low iron media with chelators, with or without FeCl3; conditions: AB5711; low iron media; 100 μM or 200 μM chelator added after 4 hr; 24 hr
# Experimental: Acinetobacter baumannii strain 5711 (AB5711) was grown overnight in LB media and sub-cultured into low iron media. The tested iron chelators were deferoxamine (DFO), deferiprone (DFP), 2,2-dipyridyl, and VK28. The iron chelators were added after 4 hr of growth.
# Bacterial growth was estimated by absorption at OD600 every 4 hr for 24 hr. Optical density (OD) at 600 nm (OD600) as measured by a spectrophotometer is a widely used technique known by one skilled in the art to estimate the total number of bacterial cells present in a broth culture (CFU/ml). The exact amount of OD produced by a culture will depend on the concentration of cells present, the species and strain of microbe present, the growth conditions used, and the wavelength of the light being transmitted. Thus, the relationship between OD and cell concentrations will depend on the specific strain and growth conditions studied. For example, the OD600 of 1 for E. coli is about 1×10^9 CFU/ml.
# This example provides further evidence that the removal of iron is responsible for bacterial growth inhibition. A. baumannii isolate 5711 was grown in low iron M9 media supplemented with 0 μM, 10 μM, or 100 μM FeCl3 with and without the addition of 200 μM VK28 following 4 hr of growth. Growth was estimated by absorbance at 600 nm every 4 hr for 24 hr.
# This example provides further evidence that the removal of iron is responsible for bacterial growth inhibition. A. baumannii isolate 5711 was grown in low iron M9 media supplemented with 0 μM, 10 μM, 100 μM, or 1000 μM FeCl3 with and without the addition of 50 μg/ml of VK28 following 4 hr of growth. Growth was estimated by absorbance at 600 nm after 20 hours.
# [11] = system: E. coli EC35218; assay: Time-kill assay in CAMHB; conditions: ¾MIC Rifampicin alone; CAMHB
# Experimental: Reductions in colony forming units (CFU)/mL were determined over time (time-kill assay) after exposure to VK28 and deferiprone (DFP), the two iron chelators that performed best in MIC assays when compared to controls. To better represent the iron content found in the human body, MIC and time-kill assays were also determined in minimal media and tissue culture media. Time-Kill assays were performed as previously described in G. P. Neupane et al., “In vitro time-kill activities of ciprofloxacin alone and in combination with the iron chelator deferasirox against Vibrio vulnificus,” European Journal of Clinical Microbiology and Infectious Diseases, 407-410 (2010); and R. L. White, et al., “Comparison of Three Different In Vitro Methods of Detecting synergy: Time-Kill, Checkerboard, and E test,” Journal of Antimicrobial Agents and Chemotherapy, 1914-1918 (1996). Initial inocula, for example 1×10^6 CFU/mL or 1×10^7 CFU/mL were challenged with iron chelator with and/or without an antibiotic. Cells were allowed to grow in CAMHB at 37° C. for 24 hours. Time-kill results were analyzed by determining the change in log 10 numbers of CFU/ml at 0, 6, and 24 h, compared to counts at 0 h. Antimicrobials were considered bactericidal at the lowest concentration that reduced the size of the original inoculum by >3 log 10 CFU/ml (99.9%) over each of the time periods and were considered bacteriostatic if the inoculum's size was reduced by 0 to <3 log 10 CFU/ml.
# In this example, time-kill assays were performed as described in Example 9 against different multi-drug resistant bacteria, namely E. coli and MRSA.
# In this example, time-kill assays were performed as described in Example 9 using ApoL1 as the iron chelator against two different E. coli strains. […] Time-kill results were analyzed by determining the change in log 10 numbers of CFU/mL at 6 and 24 hours.
# In this example, time-kill assays were performed as described in Example 9 using Apo6619 as the iron chelator in combination with Rifampin against E. coli 35718. […] Time-kill results were analyzed by determining the change in log 10 numbers of CFU/mL at 0, 5 and 24 hours.
# [12] = system: A. baumannii strain AB19606; assay: Growth (OD600) with chelator, Rifampin or both; conditions: CAMHB
# Experimental: A. baumannii strain AB19606 was grown in CAMHB and challenged with 1.5×MIC compound 4 (Var) or 1.5×MIC Triapine (Tri) with or without 0.75×MIC Rifampin (Rif). Growth was estimated by absorbance at 600 nm (y-axis) at 0 or 24 hours.
# [13] = system: E. coli strain EC35218; assay: Growth (OD600) with chelator, Rifampin or both; conditions: CAMHB
# Experimental: E. coli strain EC35218 was grown in CAMHB and challenged with 1.5×MIC compound 4 (Var) or 1.5×MIC Triapine (Tri) with or without 0.75×MIC Rifampin (Rif). Growth was estimated by absorbance at 600 nm (y-axis) at 0 or 24 hours.
# [14] = system: AB5075, a stain of A. baumannii (Ab); assay: Development of rifampin resistance over 7 days (OD600); conditions: rifampin alone
# Experimental: Development of antibiotic-resistant strains is an ongoing problem in the treatment of bacterial infections. In some embodiments, the present technology provides methods and compositions for reducing, inhibiting or preventing formation of antibiotic-resistant bacterial strains. In some embodiments, the iron chelator of the present technology is administered to a patient as a prophylactic before antibiotic treatment or during antibiotic treatment. In some embodiments, the iron chelator is added concurrently with an antibiotic.
# Cultures of AB5075, a stain of A. baumannii (Ab), was cultured in the presence of Rifampin alone, the iron chelator ApoL1 alone or Rifampin combination with ApoL1 for 7 days.
# [15] = ATCC17978, ATCC 17978, Table 1, read-out: MIC of Iron Chelators
# [16] = ATCC19606, ATCC 19606, Table 1, read-out: MIC of Iron Chelators
# [17] = Escherichia coli, ATCC35218, ATCC 35218, Table 1, read-out: MIC of Iron Chelators
# [18] = Escherichia coli, ATCC43888, ATCC 43888 (0157:H7), Table 1, read-out: MIC of Iron Chelators
# [19] = ATCC700603, ATCC 700603, Table 1, read-out: MIC of Iron Chelators
# [20] = BAA2146, BAA-2146, Table 1, read-out: MIC of Iron Chelators
# [21] = ATCC27853, ATCC 27853, Table 1, read-out: MIC of Iron Chelators
# [22] = PAO1, Table 1, read-out: MIC of Iron Chelators
# [23] = ATCC25923, ATCC 25923, Table 1, read-out: MIC of Iron Chelators
# [24] = ATCC 43300 (MRSA), Table 1, read-out: MIC of Iron Chelators
# [25] = ATCC17978, ATCC 17978, read-out: MIC of Iron Chelators
# [26] = ATCC19606, ATCC 19606, read-out: MIC of Iron Chelators
# [27] = Escherichia coli, 35718, read-out: MIC of Iron Chelators
# [28] = Escherichia coli, ATCC43888, ATCC 43888 (0157:H7), read-out: MIC of Iron Chelators
# [29] = ATCC700603, ATCC 700603, read-out: MIC of Iron Chelators
# [30] = BAA2146, BAA-2146, read-out: MIC of Iron Chelators
# [31] = ATCC27853, ATCC 27853, read-out: MIC of Iron Chelators
# [32] = PAO1, read-out: MIC of Iron Chelators
# [33] = alone: 1.5×MIC chelator or 0.75×MIC Rifampin
# [34] = 1.5×MIC chelator in combination with 0.75×MIC Rifampin
SMILES,"MIC [1, 15]","MIC [1, 16]","MIC [2, 17]","MIC [2, 18]","MIC [3, 19]","MIC [3, 20]","MIC [4, 21]","MIC [4, 22]","MIC [5, 23]","MIC [5, 24]","MIC [6, 25]","MIC [6, 26]","MIC [7, 27]","MIC [7, 28]","MIC [8, 29]","MIC [8, 30]","MIC [9, 31]","MIC [9, 32]",bacterial growth (OD600 growth curves) [10],"reduction of bacteria (absorbance at 600 nm, 24 hours) [12, 33]",other results
"CC(=O)N(O)CCCCCNC(=O)CCC(=O)N(O)CCCCCNC(=O)CCC(=O)N(O)CCCCCN [DFO, deferoxamine]",> 500 µg/mL,> 500 µg/mL,> 500 µg/mL,> 500 µg/mL,> 500 µg/mL,> 500 µg/mL,> 500 µg/mL,> 500 µg/mL,> 500 µg/mL,> 500 µg/mL,> 500 µg/mL,> 500 µg/mL,> 500 µg/mL,> 500 µg/mL,> 500 µg/mL,> 500 µg/mL,> 500 µg/mL,> 500 µg/mL,little effect,–,–
CO[C@H]1/C=C/O[C@@]2(C)Oc3c(C)c(O)c4c(O)c(c(/C=N/N5CCN(C)CC5)c(O)c4c3C2=O)NC(=O)/C(C)=C\C=C\[C@H](C)[C@H](O)[C@@H](C)[C@@H](O)[C@@H](C)[C@H](OC(C)=O)[C@@H]1C [Rifampin],–,–,–,–,–,–,–,–,–,–,–,–,–,–,–,–,–,–,–,no reduction of bacteria,"CFU/mL at 24 hours [11]: about 1×10^7 CFU/mL; reduction of bacteria (absorbance at 600 nm, 24 hours) [13, 33]: did not result in a reduction of bacteria; time until antibiotic-resistant strains develop [14]: less than one day"
"NC(=S)N/N=C/c1ncccc1N [Triapine, 3-aminopyridine-2-carboxaldehyde thiosemicarbazone]",–,–,–,–,–,–,–,–,–,–,–,–,–,–,–,–,–,–,–,no reduction of bacteria,"MIC ([1]; AB19606, CAMHB, read-out: MIC): 32 µg/mL; MIC ([2]; EC43888, CAMHB): 125 µg/mL; MIC ([2]; Escherichia coli, EC35218, CAMHB, read-out: MIC): 125 µg/mL; MIC ([3]; KP700603, CAMHB, read-out: MIC): 250 µg/mL; MIC ([4]; PA27853, CAMHB, read-out: MIC): 250 µg/mL; MIC ([5]; SA43300, CAMHB, read-out: MIC): 125 µg/mL; reduction of bacteria (absorbance at 600 nm, 24 hours) [12, 34]: significant reduction in bacteria; reduction of bacteria (absorbance at 600 nm, 24 hours) [13, 34]: significant reduction in bacteria; reduction of bacteria (absorbance at 600 nm, 24 hours) [13, 33]: did not result in a reduction of bacteria"
"c1ccc(-c2ccccn2)nc1 [DIP, 2,2-dipyridyl]",64 µg/mL,64 µg/mL,64 µg/mL,64 µg/mL,500 µg/mL,250 µg/mL,250 µg/mL,250 µg/mL,500 µg/mL,250 µg/mL,32 µg/mL,32 µg/mL,64 µg/mL,64 µg/mL,250 µg/mL,125 µg/mL,250 µg/mL,250 µg/mL,reduced bacterial growth to a significant extent,–,–
